The values below come from patent publication US10265294B2, “Compositions and methods for treating epithelial cancer” (YALE UNIVERSITY, priority 2016, dated 2019).

Series [1] has as its system chemoresistant ovarian cancer stem cells. The series can be described thus: OCSC growth and morphology with TRX-E-002-1, AICAR or the combination. Type of series: cell-based, human. How it is done:
The effect of each compound on cell growth was assessed using a kinetic live cell imagine system (Incucyte, Essen Bioscience). Proliferation was determined based on either confluence or fluorescent count from nuclear-restricted RFP or GFP. The IC50 values were calculated using GraphPad Prism (GraphPad Software Inc., LaJolla, Calif.). […]

Series [2] deals with i.p. tumors of mCherry+OCSC1-F2 ovarian cancer cells. The series can be described thus: Recurrent disease xenograft, maintenance treatment after Paclitaxel. Type of series: in vivo. The text has this: The Yale University Institutional Animal Care and Use Committee approved all in vivo studies described. Intra-peritoneal tumors were established in athymic nude mice using 4×10^6 mCherry+OCSC1-F2 ovarian cancer cells (Craveiro, et al., 2013, Cancer Med. 2:751-762). Injection of cancer cells is designated as day 0 and treatment commenced between day 3-5. Establishment of i.p. tumors was confirmed by live imaging (In-Vivo FX PRO, Bruker Corp., Billerica, Mass.) prior to treatment. TRX-E-002-1 was prepared in 20% Captisol or Dexsolve and administered daily at 50 mg/kg or 100 mg/kg. Paclitaxel was given at 12 mg/kg q3d and Cisplatin at 5 mg/kg weekly. All treatments were given i.p. Tumor growth was monitored q3d by live imaging and response to treatment was assessed using ROI area.
Although the standard of care for ovarian cancer patients (platinum plus taxane) is effective initially, most patients develop recurrent disease. Recurrence is the major cause of mortality in ovarian cancer patients, and thus approaches that can prevent recurrence are critical to improve patient survival. As described elsewhere herein, a unique advantage of the xenograft model is the recapitulation of recurrent disease that is typically observed in patients with ovarian cancer. […] Upon recurrence, tumors acquire resistance and become unresponsive to a second-round of Paclitaxel regimen, as observed in ovarian cancer patients. Thus, the model allows one to assess the value of novel compounds in preventing recurrence when given as maintenance treatment.
Thus mice were given Paclitaxel as initial treatment. […] After the 4th dose of Paclitaxel mice were re-randomized into the different maintenance groups. Here the maintenance protocol consisted of continued treatment with Paclitaxel, or maintenance with TRX-E-002-1 (100 mg/kg), or maintenance with Vehicle control.

The subject of series [3] is c-Jun. The series can be described thus: Phosphokinase array / Western blot for phosphorylated and total c-Jun in OCSCs. Type of series: cell-based, human. How it is done:
SDS-PAGE and Western blots were performed using 20 μg of total protein lysate as described in Kamsteeg, et al., 2003, Oncogene 22:2611-2620. Antibodies used were: mouse anti-phospho ERK (Santa Cruz Biotechnology, Inc., Dallas, Tex.); rabbit anti-phospho c-Jun, rabbit anti c-Jun, rabbit anti-ERK, rabbit anti-cleaved caspase 3 all from Cell Signaling Technology, Danvers, Mass.; and mouse anti-GAPDH (Sigma-Aldrich).
In order to elucidate the early pathways responsible for the sustained cytotoxic effect observed with TRX-E-002-1, a phosphokinase array was performed. The phosphokinase array detected relative phosphorylation levels of 43 different kinases involved in major signal transduction pathways.
The western blot results also validated the decrease in p-ERK in cells treated with TRX-E-002-1. […] The effect on the phosphorylation status of the kinases (upregulation of p-cJun and downregulation of p-ERK) was observed as early as 2 h post-treatment and maintained up to 24 h (FIG. 4A). The phosphorylation levels of c-Jun and ERK correlate with the differential ability of the two doses of TRX-E-002-1 to induce a sustained cytotoxic effect. […] This correlates with the ability of this dose of TRX-E-002-1 to maintain the upregulation of p-cJun and downregulation of p-ERK even when the compound is removed (FIG. 4B). […]
(In general: A western blot detects proteins with antibodies after separation by electrophoresis.)

The subject of series [4] is co-culture of RFP-labeled OCSC2 and GFP-labeled OCC2. The series can be described thus: In vitro co-culture model 50% RFP-OCSC2 / 50% GFP-OCC2. Type of series: cell-based. The note with it: co-culture 50/50; TRX-E-002-1 0.12 μM, Cisplatin 20 μM. The procedure: CD44+/MyD88+ ovarian cancer stem cell clones (OCSC1 and OCSC2) and CD44−/MyD88− ovarian cancer cells (OCC1 and OCC2) were isolated from either tumor tissue or ascites obtained from patients diagnosed with stage III/IV serous ovarian cancer and propagated (Alvero, et al., 2009, Cell Cycle 8:158-166; Chefetz, et al., 2013, Cell Cycle 12:511-521). The epithelial nature of the isolated cells was determined by immunostaining for Ck18. Purity of the cultures based on CD44 expression by flow cytometry and chemoresistance were routinely tested. Stable expression of nuclear-restricted red fluorescent (in OCSCs) or green fluorescent proteins (in OCCs) was performed by transduction using NUCLIGHT® Red or Green Lentivirus Reagent (Essen Bioscience, Ann Arbor, Mich.). Spheroids were formed from OCSCs by culturing in ultra-low attachment multi-well plates (Corning, Inc., Corning, N.Y.).
Effect of each compound on cell morphology, growth, and viability was assessed using a kinetic live cell imaging system (Incucyte, Essen Bioscience). Proliferation was calculated as previously described (Alvero, et al., 2011, Mol. Cancer Ther. 10:1385-1393) using metrics from either confluence or fluorescent count from nuclear-restricted RFP or GFP. Cell death was quantified; similarly CELLTOX® Green Cytotoxicity Assay (Promega, Madison, Wis.). IC50 was calculated as described using GraphPad Prism (GraphPad Software Inc., LaJolla, Calif.).
Without wishing to be limited by any theory, response to chemotherapy may be modified by cross-talk among different cancer cell types within the tumor. Thus, to mimic the heterogeneity of ovarian tumors an in vitro co-culture model consisting of RFP-labeled chemoresistant OCSC2 and GFP-labeled chemosensitive OCC2 was used. The co-cultures, which are comprised of 50% RFP-OCSC2 and 50% GFP-OCC2 at time of treatment, were exposed to TRX-E-002-1, cisplatin, or the combination of both. Since GFP-OCC2 has faster doubling time than RFP-OCSC2, it overtook the control co-cultures by the end of the experiment and thus the control co-cultures are mainly comprised of GFP-OCC2 by the 24 h time-point (FIG. 2B).

On to `COc1cc(C2COc3c(ccc(O)c3C)C2c2ccc(O)cc2)cc(OC)c1O` (single isomer, unassigned) [TRX-E-002-1], for which the “cell morphology / apoptotic cells” value in series [1] (48 hours, AICAR at 0.2 mM) was “only minimal effect”. For the same molecule, the “effect on cell growth” value in series [1] (TRX-E-002-1 25 ng/ml, mono therapies or combination) is given as “minimal effect”. Moreover, in series [2] (TRX-E-002-1 100 mg/kg daily i.p. maintenance), the “tolerability of the maintenance schedule” value is “no signs of disease or morbidity requiring euthanasia”. The “tumor progression during maintenance treatment” value in series [2] (after 4th dose of Paclitaxel, TRX-E-002-1 100 mg/kg daily i.p. or continued Paclitaxel) is given as “effectively retarded tumor proliferation”. Moreover, in series [2] (by day 35, TRX-E-002-1 100 mg/kg maintenance), the “tumor burden (ROI area) versus group maintained with Paclitaxel” value is “significantly less”. Besides, in series [2] (maintenance groups), the “gross examination of residual disease” value is on record as “microscopic metastasis” and the “tumor weights at end point compared to control” value is listed as “significantly reduced”. Besides, the “total c-Jun” value in series [3] (Western blot time course) is reported as “time-dependent increase”. In series [3] (compared to controls, from 2 h up to 24 h post-treatment), the “levels of phosphorylated c-Jun (p-c-Jun)” value is “higher levels”. Further, in series [4], the “number of GFP+ cells (GFP-OCC2)” value is on record as “markedly reduced” and the “number of mCherry+ cells (RFP-OCSC2)” value is given as “markedly reduced”.
